In ChEMBL document CHEMBL3885861, “Open TG-GATES”:

Species on record: Rattus norvegicus
Assay: Open TG-GATES - Regimen: Single
Type: toxicity, organism-based, Sprague-Dawley
Parameters: regimen Single, gender Male, age 6 weeks
Conditions: in vivo, po, 0 mg/kg, route gavage, dose level Control; for APTT / Bas / Eos / Fbg / Hb / Ht / Lym / MCH / MCHC / MCV / Mono / Neu / PT / Plat / RBC / Ret / WBC: tissue Blood; for KIDNEY_L / KIDNEY_R / KIDNEY_TOTAL: tissue Kidney; for LIVER: tissue Liver; for A/G / ALP / ALT / AST / BUN / CRE / Ca / Cl / DBIL / GLC / IP / K / LDH / Na / PL / RALB / TBIL / TC / TG / TP / gamma-GTP: tissue Plasma

For CN(C)CCN(Cc1cccs1)c1ccccn1, the TERMINAL_BW (3 h) was 183.4 g, the APTT (3 h) was 20.4 s and the Bas (3 h) was 0%. The Eos (3 h) was 0.4%, the Fbg (3 h) was 308 mg/dL and the Hb (3 h) was 13.1 g/dL. It also gave a Ht (3 h) of 40.4%, a Lym (3 h) of 76.8% and an MCH (3 h) of 20.9 pg. It also gave an MCHC (3 h) of 32.5%, an MCV (3 h) of 64.2 fL and a Mono (3 h) of 2.4%. It also gave a Neu (3 h) of 20%, a PT (3 h) of 16.5 s and a Plat (3 h) of 124.4 x10_4/uL. It also gave an RBC (3 h) of 629.4 x10_4/ul, a Ret (3 h) of 7.8% and a WBC (3 h) of 76.5 x10_2/uL. It also gave a KIDNEY_L (3 h) of 0.8 g, a KIDNEY_R (3 h) of 0.9 g and a KIDNEY_TOTAL (3 h) of 1.7 g. It also gave an LIVER (3 h) of 8.4 g, an A/G (3 h) of 1.2 and an ALP (3 h) of 1580.4 IU/L. For the same compound, the ALT (3 h) was 41.4 IU/L, the AST (3 h) was 72.8 IU/L and the BUN (3 h) was 14.4 mg/dL. For the same compound, the CRE (3 h) was 0.2 mg/dL, the Ca (3 h) was 10.3 mg/dL and the Cl (3 h) was 107.4 meq/L. It also gave a DBIL (3 h) of 0 mg/dL, a GLC (3 h) of 181.8 mg/dL and an IP (3 h) of 7.7 mg/dL. It also gave a K (3 h) of 4.2 meq/L, an LDH (3 h) of 227 IU/L and a Na (3 h) of 142.8 meq/L. The PL (3 h) was 127.6 mg/dL, the RALB (3 h) was 2.9 g/dL and the TBIL (3 h) was 0.008 mg/dL. It also gave a TC (3 h) of 70.4 mg/dL, a TG (3 h) of 42.6 mg/dL and a TP (3 h) of 5.3 g/dL. For the same compound, the gamma-GTP (3 h) was 1 IU/L, the TERMINAL_BW (6 h) was 186.2 g and the APTT (6 h) was 20.7 s. It also gave a Bas (6 h) of 0%, an Eos (6 h) of 0.4% and a Fbg (6 h) of 303 mg/dL. It also gave a Hb (6 h) of 12.6 g/dL, a Ht (6 h) of 38.6% and a Lym (6 h) of 84.6%. For the same compound, the MCH (6 h) was 21 pg, the MCHC (6 h) was 32.7% and the MCV (6 h) was 64.1 fL. For the same compound, the Mono (6 h) was 1.6%, the Neu (6 h) was 12.4% and the PT (6 h) was 17.2 s. It also gave a Plat (6 h) of 119.7 x10_4/uL, an RBC (6 h) of 603 x10_4/ul and a Ret (6 h) of 7.8%. For the same compound, the WBC (6 h) was 97.9 x10_2/uL, the KIDNEY_L (6 h) was 0.9 g and the KIDNEY_R (6 h) was 0.9 g. It also gave a KIDNEY_TOTAL (6 h) of 1.7 g, an LIVER (6 h) of 8.3 g and an A/G (6 h) of 1.2. For the same compound, the ALP (6 h) was 1742 IU/L, the ALT (6 h) was 37.4 IU/L and the AST (6 h) was 68.4 IU/L. It also gave a BUN (6 h) of 10.8 mg/dL, a CRE (6 h) of 0.2 mg/dL and a Ca (6 h) of 10 mg/dL. It also gave a Cl (6 h) of 106.2 meq/L, a DBIL (6 h) of 0 mg/dL and a GLC (6 h) of 174.2 mg/dL. For the same compound, the IP (6 h) was 9 mg/dL, the K (6 h) was 4.1 meq/L and the LDH (6 h) was 171.6 IU/L. It also gave a Na (6 h) of 141.8 meq/L, a PL (6 h) of 127.2 mg/dL and an RALB (6 h) of 2.9 g/dL. It also gave a TBIL (6 h) of 0.016 mg/dL, a TC (6 h) of 74.8 mg/dL and a TG (6 h) of 44.6 mg/dL. The TP (6 h) was 5.3 g/dL, the gamma-GTP (6 h) was 1 IU/L and the TERMINAL_BW (9 h) was 180.7 g. The APTT (9 h) was 20.7 s, the Bas (9 h) was 0% and the Eos (9 h) was 0.8%. It also gave a Fbg (9 h) of 296.8 mg/dL, a Hb (9 h) of 13 g/dL and a Ht (9 h) of 39.3%. The Lym (9 h) was 82.2%, the MCH (9 h) was 21.1 pg and the MCHC (9 h) was 33.1%. It also gave an MCV (9 h) of 63.9 fL, a Mono (9 h) of 1.6% and a Neu (9 h) of 14.8%. The PT (9 h) was 15.6 s, the Plat (9 h) was 121.1 x10_4/uL and the RBC (9 h) was 615.8 x10_4/ul. The Ret (9 h) was 7.7%, the WBC (9 h) was 69.3 x10_2/uL and the KIDNEY_L (9 h) was 0.8 g. The KIDNEY_R (9 h) was 0.8 g, the KIDNEY_TOTAL (9 h) was 1.6 g and the LIVER (9 h) was 7.3 g. For the same compound, the A/G (9 h) was 1.2, the ALP (9 h) was 1371.8 IU/L and the ALT (9 h) was 33.8 IU/L. For the same compound, the AST (9 h) was 66.4 IU/L, the BUN (9 h) was 11.2 mg/dL and the CRE (9 h) was 0.2 mg/dL. For the same compound, the Ca (9 h) was 10.1 mg/dL, the Cl (9 h) was 106.8 meq/L and the DBIL (9 h) was 0 mg/dL. It also gave a GLC (9 h) of 177.8 mg/dL, an IP (9 h) of 9.6 mg/dL and a K (9 h) of 4.2 meq/L. For the same compound, the LDH (9 h) was 171.2 IU/L, the Na (9 h) was 142.4 meq/L and the PL (9 h) was 133.2 mg/dL. The RALB (9 h) was 2.9 g/dL, the TBIL (9 h) was 0.018 mg/dL and the TC (9 h) was 73.4 mg/dL. It also gave a TG (9 h) of 59.4 mg/dL, a TP (9 h) of 5.3 g/dL and a gamma-GTP (9 h) of 1 IU/L. For the same compound, the TERMINAL_BW (24 h) was 200.8 g, the APTT (24 h) was 20.1 s and the Bas (24 h) was 0%. It also gave an Eos (24 h) of 0.8%, a Fbg (24 h) of 280.8 mg/dL and a Hb (24 h) of 12.9 g/dL. For the same compound, the Ht (24 h) was 39.1%, the Lym (24 h) was 79.2% and the MCH (24 h) was 21.2 pg. The MCHC (24 h) was 33%, the MCV (24 h) was 64.3 fL and the Mono (24 h) was 2.4%. The Neu (24 h) was 17%, the PT (24 h) was 16.5 s and the Plat (24 h) was 120.3 x10_4/uL. The RBC (24 h) was 608.2 x10_4/ul, the Ret (24 h) was 8% and the WBC (24 h) was 89.7 x10_2/uL. The KIDNEY_L (24 h) was 0.9 g, the KIDNEY_R (24 h) was 0.9 g and the KIDNEY_TOTAL (24 h) was 1.8 g. The LIVER (24 h) was 9.4 g, the A/G (24 h) was 1.2 and the ALP (24 h) was 1802.6 IU/L. It also gave an ALT (24 h) of 41.6 IU/L, an AST (24 h) of 71.8 IU/L and a BUN (24 h) of 16.8 mg/dL. It also gave a CRE (24 h) of 0.2 mg/dL, a Ca (24 h) of 11 mg/dL and a Cl (24 h) of 105.6 meq/L. The DBIL (24 h) was 0.002 mg/dL, the GLC (24 h) was 188 mg/dL and the IP (24 h) was 7.4 mg/dL. For the same compound, the K (24 h) was 4.4 meq/L, the LDH (24 h) was 206.4 IU/L and the Na (24 h) was 142.4 meq/L. It also gave a PL (24 h) of 149.8 mg/dL, an RALB (24 h) of 3 g/dL and a TBIL (24 h) of 0.018 mg/dL. The TC (24 h) was 77.8 mg/dL, the TG (24 h) was 92.6 mg/dL and the TP (24 h) was 5.4 g/dL. It also gave a gamma-GTP (24 h) of 1 IU/L.
